Assay results published in publication PMC7803973, “Structural basis of malaria parasite phenylalanine tRNA-synthetase inhibition by bicyclic azetidines” (Nature Communications, 2021).

Key:
[1] = target: T1, PfcFRS (Plasmodium falciparum, UniProt Q8I246); assay: Surface plasmon resonance binding; settings: Pf; SPR, 1:1 binding model; read-out: Kd (cFRS)
T1 sequence (Q8I246 1-575): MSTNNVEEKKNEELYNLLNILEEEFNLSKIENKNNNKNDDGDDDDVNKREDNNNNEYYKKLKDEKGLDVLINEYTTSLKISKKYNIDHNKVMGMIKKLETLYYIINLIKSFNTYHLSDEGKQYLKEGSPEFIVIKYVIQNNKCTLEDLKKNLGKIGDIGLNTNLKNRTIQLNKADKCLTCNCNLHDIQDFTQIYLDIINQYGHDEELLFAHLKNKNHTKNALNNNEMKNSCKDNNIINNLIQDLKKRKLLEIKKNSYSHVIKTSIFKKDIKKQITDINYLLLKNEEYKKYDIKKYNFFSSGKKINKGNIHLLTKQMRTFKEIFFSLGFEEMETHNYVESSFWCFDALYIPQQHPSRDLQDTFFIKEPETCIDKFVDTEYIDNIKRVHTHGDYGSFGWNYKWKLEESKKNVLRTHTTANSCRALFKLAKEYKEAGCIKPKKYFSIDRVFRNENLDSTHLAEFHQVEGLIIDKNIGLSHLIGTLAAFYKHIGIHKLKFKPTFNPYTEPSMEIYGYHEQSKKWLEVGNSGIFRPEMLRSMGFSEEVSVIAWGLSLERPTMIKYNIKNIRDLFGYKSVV
T1 sequence (Q8IIW2 1-623 partner): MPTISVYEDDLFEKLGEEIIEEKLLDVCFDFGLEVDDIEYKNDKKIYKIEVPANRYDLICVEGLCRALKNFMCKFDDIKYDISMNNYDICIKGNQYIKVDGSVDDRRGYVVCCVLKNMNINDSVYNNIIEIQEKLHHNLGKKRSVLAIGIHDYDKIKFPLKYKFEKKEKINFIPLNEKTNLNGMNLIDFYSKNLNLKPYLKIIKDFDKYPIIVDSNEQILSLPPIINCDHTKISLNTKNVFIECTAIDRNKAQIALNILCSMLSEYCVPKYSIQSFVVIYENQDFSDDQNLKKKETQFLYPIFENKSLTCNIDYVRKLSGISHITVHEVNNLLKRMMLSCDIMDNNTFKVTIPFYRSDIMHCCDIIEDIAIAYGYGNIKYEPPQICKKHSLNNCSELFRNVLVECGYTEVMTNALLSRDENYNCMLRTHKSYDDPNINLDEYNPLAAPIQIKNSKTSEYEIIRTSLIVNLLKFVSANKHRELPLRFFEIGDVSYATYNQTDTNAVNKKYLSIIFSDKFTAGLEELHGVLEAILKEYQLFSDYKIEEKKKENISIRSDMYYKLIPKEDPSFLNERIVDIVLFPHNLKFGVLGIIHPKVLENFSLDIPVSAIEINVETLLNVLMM
Procedure: (§1) These were carried out on a Biacore T200 instrument (GE Healthcare) at 25 °C. The binding experiments were performed in buffer 10 mM phosphate buffered saline (PBS), pH 7.4, containing 5% dimethyl sulfoxide (DMSO). The flow system was primed with the running buffer before the initiation of the experiment. Both PfcFRS and HscFRS were immobilized to Sensor Chip CM5 by standard amine coupling chemistry using N-hydroxysuccinimide (NHS) and ethyl(dimethylaminopropyl) carbodiimide (EDC) to an immobilization level of approximately 1500 RU. The binding experiments were carried out in a single cycle kinetics mode. BRD1389 was serially diluted in running buffer and injected at a flow rate of 60 μl min^−1 across both surfaces for 60 s and dissociations were set up for 120 s. The data analysis was done using Biacore evaluation T200 Evaluation software (GE Healthcare) and after applying the solvent correction, the data was fitted into the 1:1 binding evaluation method to determine the equilibrium dissociation constants (Kd).

[2] = target: HscFRS (Homo sapiens, UniProt Q9Y285); assay: Surface plasmon resonance binding; settings: Hs; SPR, 1:1 binding model; read-out: Kd (cFRS)
Procedure: as §1

[3] = target: T2, PvcFRS (Plasmodium vivax, UniProt A5K9S0); assay: Incubation of PvcFRS with BRD1389 and ATP analogue AMPPNP; format: binding; settings: PvcFRS with high concentrations of both BRD1389 and AMPPNP
T2 construct: Full-length PvcFRS was also purified according to the same protocol; vector-encoded tag of pETM11 (own knowledge: N-terminal His6 with TEV site); Ni-NTA purification; made in house; host or cells: E. coli strain B834
Excerpt: The diarylacetylene moiety of BRD1389 that occupies the L-Phe site is recognized via a bed of β-strand residues Ala541-Trp542-Gly543-Leu544 (Fig. 3b), while its edge phenyl ring is covered by Tyr497 where it provides an aromatic T-shaped π…π interaction at a distance of ~4.2 Å (Fig. 3b). In addition, the diarylacetylene moiety is surrounded by hydrophobic elements of Asn519, Gln457, and Glu459 (Fig. 3b). The urea moiety of BRD1389 is buried in a groove that is composed of Gly506, His508, Glu510, Lys512–513, Leu515, Ile552 and Pro549 (Figs. 3b, e and 4c). The urea/groove interactions are mainly stabilized by hydrophobic contacts, particularly from Pro549 and His508 while residues Val517, Ile483 and Pro549 provide sandwich support to the cyclopropoxy moiety (Figs. 3b and 4c). The urea component of BRD1389 forms hydrogen bonding interactions with main-chain N-atom of Ser545 (Fig. 3a, b). The above sets of extensive interactions position BRD1389 in an ‘L’ shaped conformation wherein its methoxy methyl group is surrounded by socket residues Arg443, Glu445, His451, and Phe455. […] This similarity highlights the importance of the three-dimensional shape and rigidity of the diazabicyclodecane scaffold in pre-orienting the molecular appendages for optimal target engagement. […]

Chain of HscFRS (Q9NSD9 whole entry): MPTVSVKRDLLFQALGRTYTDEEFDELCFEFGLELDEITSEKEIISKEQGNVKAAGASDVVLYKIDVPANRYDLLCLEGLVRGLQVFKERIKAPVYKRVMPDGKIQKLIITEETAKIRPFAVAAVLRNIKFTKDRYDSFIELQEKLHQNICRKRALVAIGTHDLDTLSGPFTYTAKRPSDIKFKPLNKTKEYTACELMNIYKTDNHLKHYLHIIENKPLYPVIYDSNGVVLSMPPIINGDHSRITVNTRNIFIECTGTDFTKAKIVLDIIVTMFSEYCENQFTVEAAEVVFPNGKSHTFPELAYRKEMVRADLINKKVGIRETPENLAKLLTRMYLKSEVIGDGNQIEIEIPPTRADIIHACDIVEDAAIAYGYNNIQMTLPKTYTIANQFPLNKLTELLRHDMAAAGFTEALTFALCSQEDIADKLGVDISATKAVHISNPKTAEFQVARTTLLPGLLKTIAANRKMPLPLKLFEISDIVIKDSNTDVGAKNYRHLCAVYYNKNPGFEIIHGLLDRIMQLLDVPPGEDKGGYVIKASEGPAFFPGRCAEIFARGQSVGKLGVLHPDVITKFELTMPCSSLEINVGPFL
Chain of HscFRS (Q9Y285 whole entry): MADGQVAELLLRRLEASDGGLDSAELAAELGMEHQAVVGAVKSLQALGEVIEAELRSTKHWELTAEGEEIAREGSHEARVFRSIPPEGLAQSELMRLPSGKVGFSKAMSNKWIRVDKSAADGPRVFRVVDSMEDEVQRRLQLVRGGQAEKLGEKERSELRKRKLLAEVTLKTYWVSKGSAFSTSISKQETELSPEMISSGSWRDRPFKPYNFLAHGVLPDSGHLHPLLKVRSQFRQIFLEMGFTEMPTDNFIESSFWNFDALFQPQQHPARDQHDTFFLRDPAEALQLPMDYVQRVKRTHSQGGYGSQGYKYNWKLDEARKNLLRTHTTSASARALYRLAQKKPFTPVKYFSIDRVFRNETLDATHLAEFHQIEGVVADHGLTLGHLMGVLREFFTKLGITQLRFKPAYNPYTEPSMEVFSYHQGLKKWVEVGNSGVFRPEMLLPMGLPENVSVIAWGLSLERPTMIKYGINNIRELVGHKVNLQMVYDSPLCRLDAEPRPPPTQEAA
T2 sequence (A5K464 whole entry): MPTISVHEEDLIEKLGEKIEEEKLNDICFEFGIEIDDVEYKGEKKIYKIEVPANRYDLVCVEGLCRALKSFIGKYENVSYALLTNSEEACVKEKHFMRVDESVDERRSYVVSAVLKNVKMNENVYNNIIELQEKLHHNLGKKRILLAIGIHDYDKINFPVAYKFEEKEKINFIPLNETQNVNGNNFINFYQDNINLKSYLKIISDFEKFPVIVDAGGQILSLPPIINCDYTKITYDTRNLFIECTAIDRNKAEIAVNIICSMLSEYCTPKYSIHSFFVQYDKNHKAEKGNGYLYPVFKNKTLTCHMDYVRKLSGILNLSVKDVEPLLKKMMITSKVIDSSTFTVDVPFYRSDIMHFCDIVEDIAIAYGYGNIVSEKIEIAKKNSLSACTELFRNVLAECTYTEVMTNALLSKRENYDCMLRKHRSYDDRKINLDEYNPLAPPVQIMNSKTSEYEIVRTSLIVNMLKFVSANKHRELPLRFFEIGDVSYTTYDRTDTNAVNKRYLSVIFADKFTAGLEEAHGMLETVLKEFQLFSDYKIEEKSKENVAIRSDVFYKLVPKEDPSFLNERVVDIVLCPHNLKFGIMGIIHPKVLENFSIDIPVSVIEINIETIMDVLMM
T2 sequence (A5K9S0 whole entry): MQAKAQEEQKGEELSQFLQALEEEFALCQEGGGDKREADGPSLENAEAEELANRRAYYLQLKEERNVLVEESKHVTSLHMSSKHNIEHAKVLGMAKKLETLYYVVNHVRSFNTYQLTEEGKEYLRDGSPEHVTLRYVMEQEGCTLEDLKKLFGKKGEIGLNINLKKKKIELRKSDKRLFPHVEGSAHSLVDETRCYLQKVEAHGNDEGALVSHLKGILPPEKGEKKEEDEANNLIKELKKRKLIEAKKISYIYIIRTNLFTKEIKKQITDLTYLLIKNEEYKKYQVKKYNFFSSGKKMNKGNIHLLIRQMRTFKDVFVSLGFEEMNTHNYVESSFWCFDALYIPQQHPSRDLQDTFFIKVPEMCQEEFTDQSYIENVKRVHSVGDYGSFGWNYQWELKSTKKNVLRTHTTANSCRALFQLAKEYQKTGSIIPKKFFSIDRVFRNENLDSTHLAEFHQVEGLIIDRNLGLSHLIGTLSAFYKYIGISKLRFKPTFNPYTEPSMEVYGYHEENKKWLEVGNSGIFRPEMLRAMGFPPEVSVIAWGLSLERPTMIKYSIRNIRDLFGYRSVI

SMILES: COC[C@@H]1[C@H](c2ccc(C#Cc3ccccc3)cc2)[C@@H]2CN(C(=O)Nc3ccc(OC4CC4)cc3)C[C@@H](O)[C@@H](O)CN12 [BRD1389]
- Kd [1]: 0.004 µM
- Kd [2]: 16 µM
- Binding observed on co-incubation [3]: observed only binding of BRD1389
